Laboratory results reported in the NIST ThermoML archive (doi:10.1021/je400841s).

Settings: 101.33 kPa, Liquid; for mass density: Vibrating tube method; for viscosity: Concentric cylinders viscometry; for electrical conductivity: impedancemetry (AC impedance bridge)

CCn1cc[n+](C)c1.COS(=O)(=O)[O-] [1-ethyl-3-methylimidazolium methylsulfate]
Settings | electrical conductivity [S/m] | mass density [kg/m3] | viscosity [mPa·s]
298.03 K | – | 1282.1 | –
298.15 K | 0.602 | – | 74.3
303.15 K | 0.723 | – | –
312.67 K | – | 1272.2 | –
313.15 K | 1.02 | – | 40.6
322.6 K | – | 1265.8 | –
323.15 K | 1.39 | – | 28.8
332.35 K | – | 1259.4 | –
333.15 K | 1.84 | – | 21.2
342.22 K | – | 1252.9 | –
343.15 K | 2.34 | – | 16.1

CCCCn1cc[n+](C)c1.O=S(=O)([O-])C(F)(F)F [1-butyl-3-methylimidazolium trifluoromethanesulfonate]
Settings | electrical conductivity [S/m] | mass density [kg/m3] | viscosity [mPa·s]
297.98 K | – | 1294.7 | –
298.15 K | 0.301 | – | 86.6
302.79 K | – | 1291.3 | –
303.15 K | 0.378 | – | –
313 K | – | 1283.1 | –
313.15 K | 0.553 | – | 45.6
323.12 K | – | 1275.2 | –
323.15 K | 0.763 | – | 31.6
333.12 K | – | 1267.4 | –
333.15 K | 1.01 | – | 23
343.12 K | – | 1259.8 | –
343.15 K | 1.29 | – | 17.2

CCCCn1cc[n+](C)c1.COS(=O)(=O)[O-] [1-butyl-3-methylimidazolium methyl sulfate]
Settings | electrical conductivity [S/m] | mass density [kg/m3] | viscosity [mPa·s]
298.08 K | – | 1210.5 | –
298.15 K | 0.126 | – | 223
302.78 K | – | 1207.6 | –
303.15 K | 0.16 | – | –
312.49 K | – | 1201.4 | –
313.15 K | 0.254 | – | 101
322.23 K | – | 1195 | –
323.15 K | 0.382 | – | 64.3
332.16 K | – | 1188.7 | –
333.15 K | 0.551 | – | 43.6
341.68 K | – | 1182.9 | –
343.15 K | 0.757 | – | 31.1

CCn1cc[n+](C)c1.O=S(=O)([O-])C(F)(F)F [1-ethyl-3-methylimidazolium trifluoromethanesulfonate]
Settings | electrical conductivity [S/m] | mass density [kg/m3] | viscosity [mPa·s]
293.15 K | – | 1382.9 | –
298.15 K | 0.913 | – | 45.9
303.14 K | – | 1374.6 | –
313.14 K | – | 1366.3 | –
313.15 K | 1.45 | – | 27.6
323.14 K | – | 1358 | –
323.15 K | 1.74 | – | 20.2
333.14 K | – | 1349.8 | –
333.15 K | 2.19 | – | 15.5
343.14 K | – | 1341.7 | –
343.15 K | 2.6 | – | 12.3
353.14 K | – | 1333.7 | –
